In brackets after ≈: the same amount, converted by molar mass. Read-outs that look alike come from different tables or passages of the source.
Assays:
[1] = system: SMMC-7721 human hepatic cancer cell strain; experiment: modified MTT in vitro screening, SMMC-7721; assay type: cell-based
Excerpt: (§1) 1. Screening research in vitro, employing modified MTT of anticancer substance activity. Cancer Cell Strain: [table]

[2] = system: HEP-2 human laryngeal cancer cell strain; experiment: modified MTT in vitro screening, HEP-2; assay type: cell-based
Excerpt: as §1

[3] = system: HL60 human leukemia cell strain; experiment: modified MTT in vitro screening, HL60; assay type: cell-based
Excerpt: as §1

[4] = system: PC-3 human prostate cancer cell strain; experiment: modified MTT in vitro screening, PC-3; assay type: cell-based
Excerpt: as §1

[5] = system: Bel-7402 human hepatic cancer cell strain; experiment: modified MTT in vitro screening, Bel-7402; assay type: cell-based
Excerpt: as §1

[6] = system: SGC-7901 human gastric cancer cell strain; experiment: modified MTT in vitro screening, SGC-7901; assay type: cell-based
Excerpt: as §1

[7] = system: mouse H22 liver cancer; experiment: curative effect on mouse H22 liver cancer in vivo
Description: (§2) After inoculating Kunming murine for H22 hepatic cancer and murine Lewis lung cancer, three kinds of preparation, i.e., suspension, emulsion, and lyophilized preparation, are administrated in three different ways of administration comprising gastric perfusion, intraperitoneal injection and intravenous injection, and the administration dose is high, middle and low respectively. Then the curative effect is compared with positive control group and the tumour inhibition efficiency is calculated, and the results are shown as follows: […]

[8] = system: GLC-15 human lung cancer cell strain; experiment: modified MTT in vitro screening, GLC-15; assay type: cell-based
Excerpt: as §1

[9] = system: A549 human lung cancer cell strain; experiment: modified MTT in vitro screening, A549; assay type: cell-based; settings: for IC50: A549
Excerpt: as §1

[10] = mouse, in vivo
Description: as §2

[11] = animal body weight, Lewis lung cancer mice; assay type: in vivo, mouse
Excerpt: After inoculating Kunming murine for H22 hepatic cancer and murine Lewis lung cancer, three kinds of preparation, i.e., suspension, emulsion, and lyophilized preparation, are administrated in three different ways of administration comprising gastric perfusion, intraperitoneal injection and intravenous injection, and the administration dose is high, middle and low respectively.

[12] = system: mouse Lewis lung cancer; experiment: curative effect on mouse Lewis lung cancer in vivo
Description: as §2

[13] = Homo sapiens, read-out: Ic 50 for the growth of tumour cells
[14] = emulsion, intravenous, 5 mg/kg/d ivx10qd
[15] = emulsion, intravenous, 10 mg/kg/d ivx10qd
[16] = emulsion, intravenous, 15 mg/kg/d ivx10qd
[17] = lyophilized preparation, intravenous, 5 mg/kg/d ivx10qd
[18] = lyophilized preparation, intravenous, 10 mg/kg/d ivx10qd
[19] = lyophilized preparation, intravenous, 15 mg/kg/d ivx10qd
[20] = suspension, gastric perfusion, 30 mg/kg/d igx10qd
[21] = suspension, gastric perfusion, 60 mg/kg/d igx10qd
[22] = suspension, gastric perfusion, 90 mg/kg/d igx10qd
[23] = suspension, intraperitoneal administration (igx10qd), 30 mg/kg/d
[24] = suspension, intraperitoneal administration (igx10qd), 60 mg/kg/d
[25] = suspension, intraperitoneal administration (igx10qd), 90 mg/kg/d
[26] = mouse, in vivo, iv, 5 mg/kg/day
[27] = mouse, in vivo, iv, 10 mg/kg/day
[28] = mouse, in vivo, iv, 15 mg/kg/day
[29] = Table VI, 7 mg/kg/d Ipx2, the first, third days

CC(=O)OC(C)(C)CCC(=O)[C@](C)(O)[C@H]1[C@H](O)C[C@@]2(C)[C@@H]3CC=C4[C@@H](C[C@H](O)[C@@H](O)C4(C)C)[C@]3(C)C(=O)C[C@]12C [Curcurbitacin IIa, dihydrocucurbitacin F-25-O-acetate]
IC50 [1, 13]: 22.3 mg/L (≈ 39.6 µM) | IC50 ([2]; Homo sapiens, HEp-2, read-out: Ic 50 for the growth of tumour cells): 15.8 mg/L (≈ 28.1 µM) | IC50 ([3]; Homo sapiens, HL-60, read-out: Ic 50 for the growth of tumour cells): 43.2 mg/L (≈ 76.8 µM) | IC50 [4, 13]: 10.1 mg/L (≈ 17.9 µM) | IC50 [5, 13]: > 100 mg/L | IC50 [6, 13]: 8.71 mg/L (≈ 15.5 µM) | Inhibition efficiency [7, 14]: 32.38 | Tumour weight (g) X ± SD [7, 14]: 2.13 ± 0.20 g | Inhibition efficiency [7, 15]: 44.12 | Tumour weight (g) X ± SD [7, 15]: 1.76 ± 0.08 g | Inhibition efficiency [7, 16]: 55.02 | Tumour weight (g) X ± SD [7, 16]: 1.48 ± 0.11 g | Inhibition efficiency [7, 17]: 31.1 | Tumour weight (g) X ± SD [7, 17]: 2.06 ± 0.18 g | Inhibition efficiency [7, 18]: 39.13 | Tumour weight (g) X ± SD [7, 18]: 1.82 ± 0.19 g | Inhibition efficiency [7, 19]: 46.15 | Tumour weight (g) X ± SD [7, 19]: 1.61 ± 0.18 g | Inhibition efficiency [7, 20]: 27.13 | Tumour weight (g) X ± SD [7, 20]: 2.31 ± 0.21 g | Inhibition efficiency [7, 21]: 32.09 | Tumour weight (g) X ± SD [7, 21]: 2.14 ± 0.20 g | Inhibition efficiency [7, 22]: 38.17 | Tumour weight (g) X ± SD [7, 22]: 1.96 ± 0.16 g | Inhibition efficiency [7, 23]: 36.07 | Tumour weight (g) X ± SD [7, 23]: 1.95 ± 0.12 g | Inhibition efficiency [7, 24]: 51.05 | Tumour weight (g) X ± SD [7, 24]: 1.49 ± 0.12 g | Inhibition efficiency [7, 25]: 57.05 | Tumour weight (g) X ± SD [7, 25]: 1.31 ± 0.12 g | IC50 [8, 13]: 14.6 mg/L (≈ 25.9 µM) | IC50 ([9]; human lung cancer cells, read-out: Ic 50 for growth of the human lung cancer cells): 1.5 mg/L (≈ 2.67 µM) | IC50 [9, 13]: 1.5 mg/L (≈ 2.67 µM) | Animal body weight (g) Start ([10]; 30 mg/kg/day): 19.0 g | Animal body weight (g) end ([10]; 30 mg/kg/day): 26.0 g | Animal body weight (g) Start ([10]; 60 mg/kg/day): 19.3 g | Animal body weight (g) end ([10]; 60 mg/kg/day): 26.3 g | Animal body weight (g) Start ([10]; 90 mg/kg/day): 19.1 g | Animal body weight (g) end ([10]; 90 mg/kg/day): 25.7 g | Animal body weight (g) end ([10]; iv, 10 mg/kg/day): 25.9 g | Animal body weight (g) Start ([11]; mouse, in vivo, 5 mg/kg/day): 18.1 g | Animal body weight (g) end ([11]; mouse, in vivo, 5 mg/kg/day): 20.5 g | Animal body weight (g) Start ([11]; mouse, in vivo, 10 mg/kg/day): 17.7 g | Animal body weight (g) end ([11]; mouse, in vivo, 10 mg/kg/day): 21.1 g | Animal body weight (g) Start ([11]; mouse, in vivo, 15 mg/kg/day): 18.0 g | Animal body weight (g) end ([11]; mouse, in vivo, 15 mg/kg/day): 20.7 g | Animal body weight (g) Start [11, 26]: 19.3 g | Animal body weight (g) end [11, 26]: 22.4 g | Animal body weight (g) Start [11, 27]: 19.1 g | Animal body weight (g) end [11, 27]: 22.9 g | Animal body weight (g) Start [11, 28]: 19.5 g | Animal body weight (g) end [11, 28]: 22.1 g | Inhibition efficiency [12, 14]: 40.76 | Tumour weight (g) X ± SD [12, 14]: 1.69 ± 0.11 g | Inhibition efficiency [12, 15]: 47.37 | Tumour weight (g) X ± SD [12, 15]: 1.50 ± 0.14 g | Inhibition efficiency [12, 16]: 59.30 | Tumour weight (g) X ± SD [12, 16]: 1.16 ± 0.16 g | Tumour weight (g) X ± SD ([12]; lyophilized preparation, 5 mg/kg/d ivx10qd): 1.56 ± 0.14 g | Tumour weight (g) X ± SD ([12]; lyophilized preparation, 10 mg/kg/d ivx10qd): 1.34 ± 0.18 g | Tumour weight (g) X ± SD ([12]; lyophilized preparation, 15 mg/kg/d ivx10qd): 1.20 ± 0.20 g | Inhibition efficiency ([12]; lyophilized preparation, hypodermic inoculation, 5 mg/kg/d ivx10qd): 36.33 | Inhibition efficiency ([12]; lyophilized preparation, hypodermic inoculation, 10 mg/kg/d ivx10qd): 45.31 | Inhibition efficiency ([12]; lyophilized preparation, hypodermic inoculation, 15 mg/kg/d ivx10qd): 51.20

N.N.[Cl][Pt][Cl] [DDP(Cisplatin), Cisplatin, reference compound]
Ic 50 for the growth of tumour cells [1]: 0.21 µg/mL | Ic 50 for the growth of tumour cells ([2]; HEP-2): 0.3 µg/mL | Ic 50 for the growth of tumour cells [3]: 0.695 µg/mL | Ic 50 for the growth of tumour cells [4]: 1.85 µg/mL | Ic 50 for the growth of tumour cells [5]: 2.31 µg/mL | Ic 50 for the growth of tumour cells [6]: 0.89 µg/mL | Ic 50 for the growth of tumour cells [8]: 1.72 µg/mL | Ic 50 for growth of the human lung cancer cells ([9]; human lung cancer cells): 1.6 µg/mL | Animal body weight (g) end ([11]; Table VI, 7 mg/kg/d Ipx2, the first, third days, end): 18.1 g | Animal body weight (g) Start ([11]; Table VI, 7 mg/kg/d Ipx2, the first, third days, start): 18.4 g | Inhibition efficiency [12, 29]: 92.98 | Tumour weight (g) X ± SD [12, 29]: 0.172 ± 0.06 g
